Like-named read-outs stand apart in the source and are kept apart here.
Tests used:
constipation = details: in vivo; cited from earlier work
normal volunteers [1] = test: Adverse events and symptoms, Example 1; type: in vivo, human; details: bisacodyl 10 mg single dose
Description: (§1) Laxative related adverse events were assessed via subject completion of a study specific questionnaire. Specifically, subjects rated their experience with respect to abdominal cramping, abdominal bloating, abdominal pain, gas, nausea, and vomiting. Stool was analyzed for water and electrolyte composition.

normal volunteers [2] = details: bisacodyl 20 mg, n=11, cited from earlier work
normal volunteers [3] = test: Stool electrolyte output and balance, Example 1; type: in vivo, human; details: bisacodyl 10 mg
Description: (§2) Efficacy was assessed via quantitative measurements of stool weight, bowel movement frequency and time to first BM. All stools were collected, weighed and subsequently analyzed for water and electrolyte composition.
as §1
Stools collected from study subjects were analyzed for sodium, potassium and sulfate. The data for the 80 mmol sulfate salt formulation and 10 mg bisacodyl are discussed here. The total electrolyte content of the stool was compared with the total electrolyte quantity ingested from the test preparations.
The 80 mmol sulfate salt formulation was administered initially as a formula with a 1:1 sodium to potassium ratio on a molar basis (1 study subject; DC). Based on the stool analysis results from this subject (see below) the formulation was modified to a 3:1 sodium to potassium ratio for the remaining 5 study subjects. Stool electrolyte balance results are summarized below in Tables 6 and 7.

normal volunteers [4] = test: Single dose laxative study in normal volunteers (Example 1, Study 008-211): stool output, BM frequency, time to first BM, stool water; type: in vivo, human
Description: This single center study evaluated sulfate salt compositions containing 43.8 millimoles (mmol) sulfate salts (4.2 g total sulfate) or 80 mmol sulfate salts (7.7 g total sulfate) as compared to 10 mg bisacodyl for efficacy to induce a rapid, controlled bowel movement without significant gains or losses of electrolytes. Normal volunteers were given a single dose of laxative in an in-patient setting during which all stool and urine were collected for 24 hours after laxative administration. Efficacy was based on total stool output, bowel movement frequency and time to first bowel movement (BM). A time to first BM of less than three hours was considered ideal. Stool was analyzed to determine the gain or loss of electrolytes. Safety was assessed through the collection of adverse event data and analysis of urine electrolyte composition.
Normal male and female volunteers in this single center study were enrolled to receive a single dose of a sulfate laxative formulations or bisacodyl in an open-label, non-randomized fashion.
Enrolled study subjects received a single dose of a formulation of sulfate salts (dissolved in 120 ml water) and separately, 10 mg bisacodyl, in an open-label, non-randomized fashion. The sulfate preparations, shown below, were compounded by the investigator.
After an eight hour (overnight) fast, study subjects ingested either a single dose of sulfate laxative (containing sodium sulfate and potassium sulfate) or, on a different day, bisacodyl. Sulfate was initially given with a 1:1 molar ratio sodium to potassium at a dose of 43.8 mmole sulfate salts (4.2 g total sulfate) sulfate to three study subjects. The dose was later increased to 80 mmole sulfate salts (7.7 g total sulfate) in one study subject. The 80 mmol sulfate salt formulation was then changed to a 3:1 sodium to potassium molar ratio for the final five study subjects. Bisacodyl was given at a dose of 10 mg.
Stool and urine were collected for 24 hours following laxative ingestion.
as §2

[5] = bisacodyl 10 mg single dose, mean, n=7
[6] = bisacodyl 10 mg single dose, n=7
[7] = bisacodyl 10 mg, 24 hours following laxative ingestion

Structure (SMILES): CCCCC(F)(F)[C@@]1(O)CC[C@H]2[C@@H](CC(=O)[C@@H]2CCCCCCC(=O)O)O1 [Amitiza]
- success rate (constipation): 30%

Structure (SMILES): CC(=O)Oc1ccc(C(c2ccc(OC(C)=O)cc2)c2ccccn2)cc1 [Bisacodyl]
- adverse events, gastrointestinal symptoms (normal volunteers [1]): one bisacodyl volunteer reported severe cramping
- BM Frequency (normal volunteers [2]; mean): 5.4 #/12hrs
- Stool Output (normal volunteers [2]; mean): 757 g/12hrs
- Time to first BM (normal volunteers [2]; mean): 3.2 h
- # with BM <3 hrs, number (normal volunteers [2]): 5
- # with BM <3 hrs, percent (normal volunteers [2]): (45%)
- # with BM <3 hrs, percent (normal volunteers [2]; listed as bisacodyl): 45%
- potassium loss (normal volunteers [3]): about 2 grams
- sodium losses (normal volunteers [3]): 1.2 grams
- Stool Water (normal volunteers [4]; bisacodyl 10 mg single dose, mean (SD), n=7): 85.8% (2.4)
- BM Frequency (normal volunteers [4]; [5]): 2.9 #/12 hrs
- Stool Output (normal volunteers [4]; [5]): 681 g/12 hrs
- Time to first BM (normal volunteers [4]; [5]): 4.4 h
- Time to first BM (normal volunteers [4]; bisacodyl 10 mg single dose, mean, n=7, listed as bisacodyl): about 5 hrs
- Subjects with BM <3 hrs, number (normal volunteers [4]; [6]): 1
- Subjects with BM <3 hrs, percent (normal volunteers [4]; [6]): (14%)
- Subjects with BM <3 hrs, percent (normal volunteers [4]; bisacodyl 10 mg single dose, n=7, listed as bisacodyl): 14%
- bowel movements, average (normal volunteers [4]; [7]): about 3
- stool, average (normal volunteers [4]; [7]): ~700 grams

Structure (SMILES): C=CCN1CC[C@]23c4c5ccc(O)c4O[C@H]2[C@@H](OCCOCCOCCOCCOCCOCCOCCOC)CC[C@@]3(O)[C@H]1C5.O=C(O)C(=O)O [Movantik]
- success rate (constipation): approximately 45%

Structure (SMILES): C[N+]1(CC2CC2)CC[C@]23c4c5ccc(O)c4O[C@H]2C(=O)CC[C@@]3(O)[C@H]1C5 (stereo partly shown) [Relistor]
- success rate (constipation): 60%
